Test results taken from patent publication US12655465B2, “System for detecting and characterizing a microorganism” (Q-Linea AB, priority 2016, dated 2026).
Values after ≈ are worked out from the molar mass of the structure shown.

Tests used:
E. coli [1] = experiment: AST by flow cytometry type counting of individual bacteria (Aquila 400), MIC from differential growth; assay type: cell-based; conditions: Aquila 400 counting; for MIC: Escherichia coli
Experimental: The sample was enriched for bacteria and at the same time the culture media was changed, in this case to Mueller-Hinton media (MH-media). E. coli bacteria were recovered via filtration through a 0.2 μm filter and the recovered bacteria were resuspended in MH-media to a concentration of approximately 10^8 CFU/ml in Müller Hinton broth before being diluted to approximately 10^6 CFU/ml in Müller Hinton Broth. Antibiotic solutions were prepared in a series of 2:1 serial dilutions in Müller Hinton broth at 10× test concentrations. The range of antibiotic concentrations was chosen based on identity of the bacteria and the antibiotic. As the microorganism identified in Example 1 was E. coli in this case the following antibiotics were selected for use in the antimicrobial susceptibility test: Ciprofloxacin, Piperacillin+Tazobactam, Cefotaxime, Ceftazidim, Meropenem and Gentamicin. A series of eight different concentrations was selected based on known clinical MIC values. Eight sample tubes containing 100 μl antibiotic solution at eight different concentrations and 800 μl Müller Hinton broth were prepared. One additional tube contains 900 μl Müller Hinton broth and no antibiotic as positive control. 100 μl bacterial suspension (10^6 CFU/ml) was added to all nine tubes. A negative control sample comprising 1000 μl Müller Hinton broth (i.e., no bacteria) is prepared as negative control. All tubes were incubated at 35° C. and samples were taken after 0, 4, 6 and 24 hours. Bacterial samples were prepared for counting as in Example 2. Bacterial AST profiles were determined using a flow cytometry based counting of individual bacteria in an Aquila 400™ instrument (Q-linea AB, Sweden). Aquila 400 analysis was performed using the alexa 488™ laser. It was evident from the analysis performed at different time points that 4 hours was sufficient for detecting differential bacterial growth at the different concentration of antibiotics and thus to determine antibiotic susceptibility. Shorter times have been shown in the literature so this is not unexpected. MIC values for each antibiotic at different time points and cut-off values were calculated based on the differential bacterial growth. Values obtained by this method compared favorably with previously reported clinical MIC values and are shown below.

E. coli [2] = conditions: determined by another lab; cited from earlier work
E. coli [3] = experiment: MIC with Macrobroth dilution; assay type: cell-based; conditions: reference method; for MIC: Escherichia coli
[4] = cut-off 5%, 4 hours incubation at 35° C. in Müller Hinton broth
[5] = 4 h, cut-off 20%, 4 hours, read-out: MIC, 4 hours
[6] = 6 h, cut-off 15%, 6 hours, read-out: MIC, 6 hours
[7] = 6 h, cut-off 20%, 6 hours, read-out: MIC, 6 hours
[8] = 24 h, cut-off 5%, 24 hours, read-out: MIC, 24 hours
[9] = 24 h, cut-off 10%, 24 hours, read-out: MIC, 24 hours
[10] = 24 h, cut-off 15%, 24 hours, read-out: MIC, 24 hours
[11] = 24 h, cut-off 20%, 24 hours, read-out: MIC, 24 hours
[12] = 4 h, cut-off 5%, 4 hours incubation at 35° C. in Müller Hinton broth, read-out: MIC, 4 hours
[13] = 4 h, cut-off 10%, 4 hours, read-out: MIC, 4 hours
[14] = 4 h, cut-off 15%, 4 hours, read-out: MIC, 4 hours
[15] = 6 h, cut-off 5%, 6 hours, read-out: MIC, 6 hours
[16] = 6 h, cut-off 10%, 6 hours, read-out: MIC, 6 hours

Molecule | MIC, 4 hours (E. coli [1]; [4]) | MIC, 6 hours (E. coli [1]; cut-off 5%, 6 hours) | MIC, 24 hours (E. coli [1]; cut-off 5%, 24 hours) | MIC, 4 hours (E. coli [1]; cut-off 10%, 4 hours) | MIC, 6 hours (E. coli [1]; cut-off 10%, 6 hours) | MIC, 24 hours (E. coli [1]; cut-off 10%, 24 hours) | MIC, 4 hours (E. coli [1]; cut-off 15%, 4 hours) | MIC, 6 hours (E. coli [1]; cut-off 15%, 6 hours) | MIC with E-test (E. coli [2]) | MIC (E. coli [1]; [5]) | MIC (E. coli [1]; [6]) | MIC (E. coli [1]; [7]) | MIC (E. coli [1]; [8]) | MIC (E. coli [1]; [9]) | MIC (E. coli [1]; [10]) | MIC (E. coli [1]; [11]) | MIC (E. coli [3]) | MIC (E. coli [1]; [14]) | MIC (E. coli [1]; [15]) | MIC (E. coli [1]; [16]) | further results
Gentamicin | 1 µg/mL | 0.5 µg/mL | 1 µg/mL | 0.5 µg/mL | 0.5 µg/mL | 1 µg/mL | 0.5 µg/mL | 0.5 µg/mL | 1 µg/mL | – | – | – | – | – | – | – | – | – | – | – | MIC, 24 hours (E. coli [1]; cut-off 15%, 24 hours): 1 µg/mL; MIC, 4 hours (E. coli [1]; cut-off 20%, 4 hours): 0.5 µg/mL; MIC, 6 hours (E. coli [1]; cut-off 20%, 6 hours): 0.5 µg/mL; MIC, 24 hours (E. coli [1]; cut-off 20%, 24 hours): 1 µg/mL; MIC with Macrobroth dilution (E. coli [3]): 0.5 to 1 µg/mL
C[C@@H](O)[C@H]1C(=O)N2C(C(=O)O)=C(S[C@@H]3CN[C@H](C(=O)N(C)C)C3)[C@H](C)[C@H]12 [Meropenem] | – | – | – | – | – | – | – | – | ≤ 0.25 µg/mL | 0.5 µg/mL (≈ 1.3 µM) | 0.5 µg/mL (≈ 1.3 µM) | 0.25 µg/mL (≈ 0.652 µM) | 0.5 µg/mL (≈ 1.3 µM) | 0.5 µg/mL (≈ 1.3 µM) | 0.25 µg/mL (≈ 0.652 µM) | 0.125 µg/mL (≈ 0.326 µM) | 0.25 to 0.5 µg/mL (≈ 0.652 to 1.3 µM) | – | – | – | –
O=C(O)c1cn(C2CC2)c2cc(N3CCNCC3)c(F)cc2c1=O [Ciprofloxacin] | – | – | – | – | – | – | – | – | ≤ 0.03 µg/mL | 0.008 µg/mL (≈ 0.0241 µM) | 0.008 µg/mL (≈ 0.0241 µM) | 0.004 µg/mL (≈ 0.0121 µM) | 0.008 µg/mL (≈ 0.0241 µM) | 0.008 µg/mL (≈ 0.0241 µM) | 0.008 µg/mL (≈ 0.0241 µM) | 0.008 µg/mL (≈ 0.0241 µM) | 0.016 µg/mL (≈ 0.0483 µM) | 0.008 µg/mL (≈ 0.0241 µM) | 0.008 µg/mL (≈ 0.0241 µM) | 0.008 µg/mL (≈ 0.0241 µM) | MIC (E. coli [1]; [12]): 0.016 µg/mL (≈ 0.0483 µM); MIC (E. coli [1]; [13]): 0.008 µg/mL (≈ 0.0241 µM)
CC(C)(O/N=C(\C(=O)N[C@@H]1C(=O)N2C(C(=O)[O-])=C(C[n+]3ccccc3)CS[C@H]12)c1csc(N)n1)C(=O)O [Ceftazidime] | – | – | – | – | – | – | – | – | ≤ 0.5 µg/mL | 0.125 µg/mL (≈ 0.229 µM) | 0.125 µg/mL (≈ 0.229 µM) | 0.125 µg/mL (≈ 0.229 µM) | 0.25 µg/mL (≈ 0.457 µM) | 0.25 µg/mL (≈ 0.457 µM) | 0.25 µg/mL (≈ 0.457 µM) | 0.25 µg/mL (≈ 0.457 µM) | 0.25 µg/mL (≈ 0.457 µM) | 0.125 µg/mL (≈ 0.229 µM) | 0.125 µg/mL (≈ 0.229 µM) | 0.125 µg/mL (≈ 0.229 µM) | MIC (E. coli [1]; [12]): 0.25 µg/mL (≈ 0.457 µM); MIC (E. coli [1]; [13]): 0.25 µg/mL (≈ 0.457 µM)
CO/N=C(\C(=O)N[C@@H]1C(=O)N2C(C(=O)O)=C(COC(C)=O)CS[C@H]12)c1csc(N)n1 [Cefotaxime] | – | – | – | – | – | – | – | – | ≤ 0.5 µg/mL | 0.06 µg/mL (≈ 0.132 µM) | 0.03 µg/mL (≈ 0.0659 µM) | 0.03 µg/mL (≈ 0.0659 µM) | 0.125 µg/mL (≈ 0.274 µM) | 0.125 µg/mL (≈ 0.274 µM) | 0.06 µg/mL (≈ 0.132 µM) | 0.06 µg/mL (≈ 0.132 µM) | 0.125 µg/mL (≈ 0.274 µM) | 0.06 µg/mL (≈ 0.132 µM) | 0.06 µg/mL (≈ 0.132 µM) | 0.06 µg/mL (≈ 0.132 µM) | –
Piperacillin and Tazobactam | 4 µg/mL | 4 µg/mL | 4 µg/mL | 4 µg/mL | 4 µg/mL | 4 µg/mL | 4 µg/mL | 4 µg/mL | 2 µg/mL | – | – | – | – | – | – | – | – | – | – | – | MIC, 24 hours (E. coli [1]; cut-off 15%, 24 hours): 4 µg/mL; MIC, 4 hours (E. coli [1]; cut-off 20%, 4 hours): 4 µg/mL; MIC, 6 hours (E. coli [1]; cut-off 20%, 6 hours): 2 µg/mL; MIC, 24 hours (E. coli [1]; cut-off 20%, 24 hours): 2 µg/mL; MIC with Macrobroth dilution (E. coli [3]): 4 to 8 µg/mL
